Source: ChEMBL document CHEMBL1201862, “PubChem BioAssay data set” (2004)
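48-hour exposure; five concentrations; linearly interpolated endpoints. GI50 = concentration required for 50% inhibition of growth.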 Active and inactive are the calls of the source. No stated cut-off is given here; in the data, active = GI50 up to about 1.1 µM and inactive = higher.

Key:
Experiment in all cases: DTP human tumour cell line panel, 48 h
[1] = test system: MOLT-4
[2] = test system: DU-145
[3] = test system: SK-MEL-5
[4] = test system: TK-10
[5] = test system: Malme-3M
[6] = test system: UACC-62
[7] = test system: SN12C
[8] = test system: CAKI-1
[9] = test system: 786-0
[10] = test system: UO-31
[11] = test system: CCRF-CEM
[12] = test system: NCI/ADR-RES
[13] = test system: T47D
[14] = test system: SK-MEL-28
[15] = test system: UACC-257
[16] = test system: HCT-116
[17] = test system: Hs-578T
[18] = test system: SNB-75
[19] = test system: NCI-H23
[20] = test system: OVCAR-4
[21] = test system: HL-60
[22] = test system: MDA-N
[23] = test system: RPMI-8226
[24] = test system: SR
[25] = test system: HCT-15
[26] = test system: EKVX
[27] = test system: SW-620
[28] = test system: ACHN
[29] = test system: PC-3
[30] = test system: SNB-19
[31] = test system: A498
[32] = test system: K562
[33] = test system: SK-MEL-2
[34] = test system: A549
[35] = test system: OVCAR-8
[36] = test system: IGROV-1
[37] = test system: BT-549
[38] = test system: MDA-MB-435
[39] = test system: NCI-H226
[40] = test system: SF-539
[41] = test system: MDA-MB-231
[42] = test system: COLO 205
[43] = test system: HOP-92
[44] = test system: KM12
[45] = test system: M14
[46] = test system: NCI-H460
[47] = test system: SF-268
[48] = test system: U-251
[49] = test system: HT-29
[50] = test system: NCI-H522
[51] = test system: RXF 393
[52] = test system: OVCAR-5
[53] = test system: SK-OV-3
[54] = test system: SF-295
[55] = test system: HOP-62
[56] = test system: OVCAR-3
[57] = test system: MCF7

O=c1[nH]c(Nc2nc3ccccc3[nH]2)nc(O)c1Cc1ccccc1
GI50 [1]: > 100 µM (inactive) | GI50 [2]: > 100 µM (inactive) | GI50 [3]: > 100 µM (inactive) | GI50 [4]: > 100 µM (inactive) | GI50 [5]: > 100 µM (inactive) | GI50 [6]: > 100 µM (inactive) | GI50 [7]: > 100 µM (inactive) | GI50 [8]: > 100 µM (inactive) | GI50 [9]: 61.5 µM (inactive) | GI50 [10]: > 100 µM (inactive) | GI50 [11]: > 100 µM (inactive) | GI50 [12]: > 100 µM (inactive) | GI50 [13]: > 100 µM (inactive) | GI50 [14]: > 100 µM (inactive) | GI50 [15]: > 100 µM (inactive) | GI50 [16]: > 100 µM (inactive) | GI50 [17]: 56 µM (inactive) | GI50 [18]: 24 µM (inactive) | GI50 [19]: > 100 µM (inactive) | GI50 [20]: > 100 µM (inactive) | GI50 [21]: > 100 µM (inactive) | GI50 [22]: > 100 µM (inactive) | GI50 [23]: > 100 µM (inactive) | GI50 [24]: > 100 µM (inactive) | GI50 [25]: > 100 µM | GI50 [26]: > 100 µM (inactive) | GI50 [27]: > 100 µM (inactive) | GI50 [28]: 61 µM (inactive) | GI50 [29]: > 100 µM (inactive) | GI50 [30]: 67.8 µM (inactive) | GI50 [31]: > 100 µM (inactive) | GI50 [32]: > 100 µM (inactive) | GI50 [33]: > 100 µM (inactive) | GI50 [34]: > 100 µM (inactive) | GI50 [35]: > 100 µM (inactive) | GI50 [36]: > 100 µM (inactive) | GI50 [37]: > 100 µM (inactive) | GI50 [38]: > 100 µM (inactive) | GI50 [39]: > 100 µM (inactive) | GI50 [40]: > 100 µM (inactive) | GI50 [41]: > 100 µM (inactive) | GI50 [42]: > 100 µM (inactive) | GI50 [43]: 0.193 µM (active) | GI50 [44]: > 100 µM (inactive) | GI50 [45]: > 100 µM (inactive) | GI50 [46]: > 100 µM (inactive) | GI50 [47]: > 100 µM (inactive) | GI50 [48]: 56.8 µM (inactive) | GI50 [49]: > 100 µM (inactive) | GI50 [50]: > 100 µM (inactive)

CCN(CC)c1ccc2nc3ccc(/N=N/c4c(O)ccc5ccccc45)cc3[n+](-c3ccccc3)c2c1
GI50 [1]: > 100 µM (inactive) | GI50 [2]: > 100 µM (inactive) | GI50 [3]: > 100 µM (inactive) | GI50 [4]: > 100 µM (inactive) | GI50 [5]: > 100 µM (inactive) | GI50 [6]: > 100 µM (inactive) | GI50 [7]: > 100 µM (inactive) | GI50 [8]: > 100 µM (inactive) | GI50 [9]: > 100 µM (inactive) | GI50 [10]: > 100 µM (inactive) | GI50 [11]: > 100 µM (inactive) | GI50 [51]: > 100 µM (inactive) | GI50 [12]: > 100 µM (inactive) | GI50 [13]: > 100 µM (inactive) | GI50 [14]: > 100 µM (inactive) | GI50 [15]: > 100 µM (inactive) | GI50 [16]: > 100 µM (inactive) | GI50 [17]: > 100 µM (inactive) | GI50 [18]: > 100 µM (inactive) | GI50 [19]: > 100 µM (inactive) | GI50 [20]: > 100 µM (inactive) | GI50 [21]: 23.9 µM (inactive) | GI50 [22]: > 100 µM (inactive) | GI50 [52]: > 100 µM (inactive) | GI50 [53]: > 100 µM (inactive) | GI50 [23]: > 100 µM (inactive) | GI50 [24]: 1.47 µM (inactive) | GI50 [25]: > 100 µM | GI50 [26]: > 100 µM (inactive) | GI50 [27]: > 100 µM (inactive) | GI50 [54]: > 100 µM (inactive) | GI50 [28]: > 100 µM (inactive) | GI50 [29]: > 100 µM (inactive) | GI50 [30]: > 100 µM (inactive) | GI50 [32]: > 100 µM (inactive) | GI50 [33]: > 100 µM (inactive) | GI50 [55]: > 100 µM (inactive) | GI50 [34]: > 100 µM (inactive) | GI50 [35]: > 100 µM (inactive) | GI50 [36]: > 100 µM (inactive) | GI50 [37]: > 100 µM (inactive) | GI50 [38]: > 100 µM (inactive) | GI50 [39]: > 100 µM (inactive) | GI50 [41]: > 100 µM (inactive) | GI50 [42]: > 100 µM (inactive) | GI50 [43]: > 100 µM (inactive) | GI50 [44]: > 100 µM (inactive) | GI50 [45]: > 100 µM (inactive) | GI50 [47]: > 100 µM (inactive) | GI50 [56]: > 100 µM (inactive) | GI50 [48]: > 100 µM (inactive) | GI50 [49]: > 100 µM (inactive) | GI50 [50]: > 100 µM (inactive)

C[N+](C)(C)CCOP(=O)(O)OP(=O)([O-])OCC1CCC(n2ccc(N)nc2=O)O1 (centres undefined)
GI50 [1]: > 100 µM (inactive) | GI50 [9]: > 100 µM (inactive) | GI50 [11]: > 100 µM (inactive) | GI50 [51]: > 100 µM (inactive) | GI50 [12]: > 100 µM (inactive) | GI50 [13]: > 100 µM (inactive) | GI50 [16]: > 100 µM (inactive) | GI50 [17]: > 100 µM (inactive) | GI50 [22]: > 100 µM (inactive) | GI50 [53]: > 100 µM (inactive) | GI50 [26]: > 100 µM (inactive) | GI50 [29]: > 100 µM (inactive) | GI50 [30]: > 100 µM (inactive) | GI50 [57]: > 100 µM (inactive) | GI50 [33]: > 100 µM (inactive) | GI50 [35]: > 100 µM (inactive) | GI50 [36]: > 100 µM (inactive) | GI50 [37]: > 100 µM (inactive) | GI50 [41]: > 100 µM (inactive) | GI50 [42]: > 100 µM (inactive) | GI50 [48]: > 100 µM (inactive)
